What was measured:
[1] = in vivo; cited from earlier work
iron deficiency anemia = conditions: 15 mg in PN admixture i.v. over 6 hours every day, 3 months
Text: A patient with a history of bowel resection, secondary to inflammatory bowel disease is currently receiving TPN therapy at home. The patient develops iron deficiency anemia, secondary to ongoing bloody diarrhea and malabsorption of iron. The patient is unable to take iron supplements by mouth due to bloating and diarrhea.

[2] = patients receiving TPN, 87.5-175 mg/week iron i.v., 3 week period; cited from earlier work
[3] = single parenteral nutrition component; cited from earlier work

**Q.** With `O=P([O-])([O-])OP(=O)([O-])[O-].[Sn+2].[Sn+2]` [stannous pyrophosphate] as the compound, how does the reported adverse effects [1] read?
**A.** Its reported adverse effects is “cause hypocalcemia and immediate toxic effects”.

**Q.** Which “correction of iron deficiency anemia” value (iron deficiency anemia) does the source give for “soluble ferric pyrophosphate [soluble FePPi]” here?
**A.** The value was “effectively corrects iron deficiency anemia”.

**Q.** With iron dextran as the compound, how does the “effect on serum iron levels” value [2] read?
**A.** Its value is “effectively raised serum iron levels”.

**Q.** With `O=C([O-])CC(O)(CC(=O)O)C(=O)[O-].[Fe+2]` [ferrous citrate] as the compound, how does the “duration of compatibility with amino acid solution” value [3] read?
**A.** Its value is 1 days.

Source: patent US9161951B2, “Parenteral nutrition composition containing iron” (priority 2005, dated 2015)
